Assays:
KLK2 [1] = assay: qRT-PCR of AR-regulated gene KLK2; type: cell-based; settings: 24 hours; VCaP, LAPC-4, LNCaP, CWR-R1 and 22rv1 cells
ARE-luciferase = ARE-luciferase transactivation; type: cell-based
KLK2 [2] = assay: Western blot of AR-regulated protein expression; type: cell-based; settings: CaP cell lines
DU145 cells = assay: MTT cell growth, DU145; type: cell-based; settings: AR-negative
22Rv1 cells = assay: MTT cell growth, 22Rv1; type: cell-based; settings: six days; data not shown
VCaP cells = assay: MTT cell growth, VCaP; type: cell-based
Protocol: (§1) Identification of a 3α-oxidoreductase inhibitors: Various non-steroidal compounds were tested for anti-neoplastic activity by screening against PC-3 CaP cells. Coumarin-labeled androgens were developed to track changes in androgen metabolism pathways in response to castration or androgen metabolism inhibition using in vitro and in vivo CaP cell models.
(§2) VCaP, CWR-R1 and PC-3 cells were treated for six days with complete culture media (CM), serum-free culture media (SFM), bicalutamide (Bic) at 10 μM, the coumarin C at 20 μM, DHT at 10 nM, DHT-17C at 20 nM and DHT-3C at 20 nM (FIG. 20). […] MTT analysis was performed to compare cell growth impairment of VCaP cells treated with DHT-17C versus enzalutamide. Cells were treated with DHT-17C at 1 nM, 12 nM, 20 nM, 50 nM or 100 nM concentrations, or enzalutamide at 1 μM, 12 μM, 20 μM, 50 μM or 100 μM concentrations. […] MTT performed using ezanlutamide (20 uM) or DHT-17C (50 nM) treated mutant AR and AR-V7 positive CWR-R1 cells supported VCaP MTT data (FIG. 22).

[3] = tested on: CV-1 monkey kidney cell line; assay: MTT cell growth, CV-1; type: cell-based; settings: non-CaP cell line
AR-GFP [4] = biological target: T1, AR-GFP (Homo sapiens, UniProt P10275); assay: ImageStream nuclear co-localization with AR-GFP; type: cell-based; settings: VCaP-AR-GFP and PC-3-AR-GFP cells
T1 construct: expressed in transfected cells; host or cells: VCaP, PC-3 (also LAPC-4, CWR-R1, 22Rv1, DU145)
T1 sequence (P10275 1-920): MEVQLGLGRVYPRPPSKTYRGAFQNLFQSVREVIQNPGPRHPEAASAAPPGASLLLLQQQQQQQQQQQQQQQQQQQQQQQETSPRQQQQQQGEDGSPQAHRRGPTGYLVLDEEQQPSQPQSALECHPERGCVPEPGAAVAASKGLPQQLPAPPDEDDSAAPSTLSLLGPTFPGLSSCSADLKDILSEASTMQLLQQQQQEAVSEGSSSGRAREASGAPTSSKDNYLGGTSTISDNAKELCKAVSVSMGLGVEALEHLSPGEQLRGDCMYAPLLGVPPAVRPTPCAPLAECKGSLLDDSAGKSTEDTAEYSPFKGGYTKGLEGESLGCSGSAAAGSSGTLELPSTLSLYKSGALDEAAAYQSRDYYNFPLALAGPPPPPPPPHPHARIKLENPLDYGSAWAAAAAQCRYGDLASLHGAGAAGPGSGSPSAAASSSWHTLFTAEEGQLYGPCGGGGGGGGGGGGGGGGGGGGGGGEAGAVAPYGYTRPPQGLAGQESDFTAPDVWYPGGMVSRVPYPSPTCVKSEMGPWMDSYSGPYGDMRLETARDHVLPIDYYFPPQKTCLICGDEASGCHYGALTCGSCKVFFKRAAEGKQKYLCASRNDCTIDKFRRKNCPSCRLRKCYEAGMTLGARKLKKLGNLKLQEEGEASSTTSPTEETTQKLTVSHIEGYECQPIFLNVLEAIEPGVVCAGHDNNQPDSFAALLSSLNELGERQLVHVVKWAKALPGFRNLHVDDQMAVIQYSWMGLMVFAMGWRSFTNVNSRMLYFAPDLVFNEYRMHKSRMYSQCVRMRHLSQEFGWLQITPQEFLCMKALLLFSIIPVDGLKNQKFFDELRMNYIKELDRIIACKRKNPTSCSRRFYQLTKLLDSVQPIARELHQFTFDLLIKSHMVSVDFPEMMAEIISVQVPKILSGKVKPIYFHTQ
Excerpt: Androgen-sensitive AR-positive LAPC-4 and VCaP, castration-recurrent and AR-positive CWR-R1 and CWR-22rv1 (22rv1), and AR-negative PC-3 and DU145 cells were transfected with either an empty pCMV expression plasmid (control) or a pCMV plasmid that encoded a wild-type AR tagged with a C-terminal green fluorescent protein (GFP; AR-GFP). AR-positive CaP cell lines were transfected with AR-GFP to assess if DHT-17C or DHT-3C co-localized with AR and translocated to the nucleus.
AR positive CaP cell lines were treated for 16 hours with androgen-free, serum-free complete media (SFM) alone, or SFM that contained 20 nM or 50 nM fluorescent-androgens or C alone. The time points were chosen to measure differences in uptake of the fluorescent-androgens and nuclear or cytosolic localization of the fluorescent-androgens and/or AR-GFP.
Serum-free complete media (SFM)^2 was used to androgen deprive cells.

[5] = tested on: 293 human kidney cell line; assay: MTT cell growth, 293; type: cell-based; settings: non-CaP cell line
AR-V2-GFP = biological target: T2, AR-V2-GFP (Homo sapiens, UniProt P10275); assay: ImageStream co-localization with AR-V2-GFP; type: cell-based; settings: VCaP and PC-3 cells that stably expressed AR-V2-GFP
T2 construct: stably expressed AR170 LBD only with splice variant V2 (AR-V2-GFP); expressed in transfected cells; host or cells: VCaP, PC-3
T2 sequence (P10275 1-388 isoform P10275-2): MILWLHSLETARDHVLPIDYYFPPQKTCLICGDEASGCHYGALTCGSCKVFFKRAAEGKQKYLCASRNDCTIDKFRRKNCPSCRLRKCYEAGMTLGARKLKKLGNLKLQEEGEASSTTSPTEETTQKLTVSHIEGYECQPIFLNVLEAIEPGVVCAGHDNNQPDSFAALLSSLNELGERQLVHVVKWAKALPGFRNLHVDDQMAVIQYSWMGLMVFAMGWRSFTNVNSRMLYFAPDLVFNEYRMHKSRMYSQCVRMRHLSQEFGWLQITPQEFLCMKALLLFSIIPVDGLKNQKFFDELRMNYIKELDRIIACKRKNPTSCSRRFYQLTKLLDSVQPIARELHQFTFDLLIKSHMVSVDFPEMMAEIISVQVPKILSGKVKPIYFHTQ
Protocol: ImageStream studies were repeated using VCaP and PC-3 cells that stably expressed AR-V2 (splice-variant that lacked the N-terminus) with C-terminal GFP (AR-V2-GFP). […] ImageStream data was confirmed using immunoprecipation (IP) studies performed with a DHT-targeted antibody.
Serum-free complete media (SFM)^2 was used to androgen deprive cells. PC-3 cells that contained empty plasmid were treated with SFM alone, SFM with C or SFM with DHT-3C.

PC-3 cells = assay: MTT cell growth, AR-negative PC-3; type: cell-based; settings: six days, 20 nM
Protocol: as §1, §2

LAPC-4 cells = assay: MTT cell growth, LAPC-4; type: cell-based; settings: six days; data not shown
AR-V2 = biological target: T3, AR-V2 (Homo sapiens, UniProt P10275); type: cell-based; settings: DHT-17C versus enzalutamide
T3 construct: stably expressed AR170 LBD only with splice variant V2 (AR-V2-GFP); expressed in transfected cells; host or cells: VCaP, PC-3
T3 sequence (P10275 1-388 isoform P10275-2): T2 sequence (P10275 1-388 isoform P10275-2)
Excerpt: (§4) ImageStream was used to perform competition studies between DHT-17C and enzalutamide for AR-GFP or AR-V2 to establish that DHT-17C targets the AR-LBD.

LNCaP cells = assay: MTT cell growth, LNCaP; type: cell-based; settings: six days; data not shown
AR-GFP [6] = biological target: T1, AR-GFP; type: cell-based; settings: DHT-17C versus enzalutamide
Excerpt: as §4

CWR-R1 cells = assay: MTT cell growth, CWR-R1; type: cell-based, human; settings: six days
Protocol: as §1, §2

RDH16-YFP [7] = biological target: T4, RDH16-YFP (Homo sapiens, UniProt O75452); assay: ImageStream competition for RDH16-YFP; type: cell-based; settings: PC-3 cells that stably expressed RDH16-YFP
T4 construct: expressed in transfected cells; host or cells: PC-3
T4 sequence (O75452 1-317): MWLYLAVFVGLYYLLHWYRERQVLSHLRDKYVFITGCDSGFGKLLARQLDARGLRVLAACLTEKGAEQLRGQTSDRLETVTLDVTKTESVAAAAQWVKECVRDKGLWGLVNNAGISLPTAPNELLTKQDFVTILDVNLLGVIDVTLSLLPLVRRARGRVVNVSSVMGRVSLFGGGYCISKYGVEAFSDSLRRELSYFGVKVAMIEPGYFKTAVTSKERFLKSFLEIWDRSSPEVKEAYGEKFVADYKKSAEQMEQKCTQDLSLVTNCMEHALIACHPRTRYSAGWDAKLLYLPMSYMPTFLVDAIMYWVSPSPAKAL
Protocol: (§3) ImageStream (ImageStream^X-MKII Flow Cytometer [Amnis, Seattle, WA]) is a hybrid technique that combines the statistical power of flow cytometry and the imaging capability of fluorescence microscopy that was adapted to study simultaneously DIOL-17C compartmental localization and activity. ImageStream data were normalized against single-stained controls and analyzed using Image Data Exploration and Analysis Software (IDEAS; Amnis). The similarity score was measured by comparing two images of the same cell pixel by pixel. If the similarity score was >0, the two objects (RDH16-YFP and DIOL-17C) were co-localized.

3α-oxidoreductase = assay: LC-MS/MS of CaP cells treated with DIOL-17C; type: in vitro ADME
RDH16-YFP [8] = biological target: T4, RDH16-YFP; assay: ImageStream co-localization with RDH16-YFP; type: cell-based; settings: PC-3-RDH16-YFP cells
Protocol: as §3

C[C@]12CCC(=O)C[C@@H]1CC[C@@H]1[C@@H]2CC[C@]2(C)[C@@H](O)CC[C@@H]12 [DHT, 5α-dihydrotestosterone, reference compound]
KLK2 transcript induction (KLK2 [1]): produced similar inductions of expression
ARE-luciferase signal (ARE-luciferase): produced ARE-luciferase signal
AR-regulated protein expression levels (KLK2 [2]): produced similar AR-regulated protein expression levels

C[C@]12CCC3C(CC[C@H]4CC(=O)CC[C@]34C)C1CC[C@@H]2OCC(=O)NCCc1cc(=O)oc2c3c4c(cc12)CCCN4CCC3 (stereo partly drawn) [DHT-17C, N-2′-(2,3,4,5-Tetrahydro-1H,4H-10-keto-11-oxa-3α-azabenzo[de]anthracenyl)ethyl (3-keto-5α-androstan-17β-yl)glycolamide]
DU145 cell growth (MTT) (DU145 cells): did not impair cell growth
22Rv1 cell growth (MTT) (22Rv1 cells): produced similar responses
dose lower than enzalutamide for VCaP growth inhibition (VCaP cells; DHT-17C 20 nM vs enzalutamide 20 μM, AR-V7 positive VCaP): 1000 ×
VCaP cell growth impairment versus enzalutamide (VCaP cells; DHT-17C at 1, 12, 20, 50 or 100 nM): impaired VCaP cell growth to similar extents as enzalutamide
VCaP cell growth (MTT) (VCaP cells; six days, DHT-17C at 20 nM, DHT-3C at 20 nM): impaired VCaP and CWR-R1 cell growth
VCaP cell growth, combination with bicalutamide (VCaP cells; six days, bicalutamide 10 μM, p-values<0.05): enhanced the effect of bicalutamide
CV-1 cell growth (MTT) [3]: did not impair cell growth
nuclear co-localization with AR-GFP and DRAQ5 (AR-GFP [4]): co-localized with AR-GFP
293 cell growth (MTT) [5]: did not impair cell growth
co-localization with AR-V2-GFP (AR-V2-GFP): co-localized with DRAQ5 and AR-V2-GFP
PC-3 cell growth (MTT) (PC-3 cells): did not impair cell growth
LAPC-4 cell growth (MTT) (LAPC-4 cells): produced similar responses
competition for the AR-LBD of AR-V2 (AR-V2): compete for the AR-LBD of wild-type AR and AR-V2
KLK2 transcript induction (KLK2 [1]): did not induce KLK2 transcript formation
LNCaP cell growth (MTT) (LNCaP cells): produced similar responses
competition for the AR-LBD of wild-type AR (AR-GFP [6]): compete for the AR-LBD of wild-type AR and AR-V2
CWR-R1 cell growth (MTT) (CWR-R1 cells; DHT-17C at 20 nM, DHT-3C at 20 nM): impaired VCaP and CWR-R1 cell growth
CWR-R1 cell growth, combination with bicalutamide (CWR-R1 cells; bicalutamide 10 μM, p-values<0.05): enhanced the effect of bicalutamide

C[C@]12CC[C@@H](O)C[C@@H]1CC[C@@H]1[C@@H]2CC[C@]2(C)[C@@H](O)CC[C@@H]12 [DIOL, 5α-androstane-3α,17β-diol, reference compound]
competition for RDH16-YFP (RDH16-YFP [7]): compete for RDH16-YFP
ARE-luciferase signal (ARE-luciferase): produced ARE-luciferase signal

C[C@]12CCC3C(CC[C@H]4C[C@H](O)CC[C@]34C)C1CC[C@@H]2OCC(=O)NCCc1cc(=O)oc2c3c4c(cc12)CCCN4CCC3 (stereo partly drawn) [DIOL-17C, N-2′-(2,3,4,5-Tetrahydro-1H,4H-10-keto-11-oxa-3α-azabenzo[de]anthracenyl)ethyl (3α-hydroxy-5α-androstan-17β-yl)glycolamide]
3α-oxidoreductase metabolism to DHT-17C (3α-oxidoreductase): did not impair 3α-oxidoreductase metabolism of DIOL-17C to DHT-17C
free DIOL and orphan coumarin produced by cells (3α-oxidoreductase): No orphan fluorophores were detected
CaP cell growth (MTT) (VCaP cells; 20 nM, 6 days in SFM, FIG. 14 VCaP): impaired CaP cell growth
competition for RDH16-YFP (RDH16-YFP [7]): compete for RDH16-YFP
co-localization with RDH16-YFP and DRAQ5 in the nucleus (RDH16-YFP [8]): co-localized with RDH16-YFP
